# Results reported in patent US4692443A, “3-bicyclicpyridinium-methyl cephalosporins” (Eli Lilly and Company, priority 1984, dated 1987).
# Read-outs that look alike come from different tables or passages of the source.
# What was measured:
# [1] = system: Pseudomonas X528; assay: standard in vitro agar dilution assay (MIC); type: cell-based; conditions: Pseudomonas strain X528
# Description: The antibacterial activity of several representative compounds of the invention has been evaluated in standard in vitro agar dilution assays. The following Table presents typical minimum inhibitory concentrations (MIC's) in μg /ml for exemplary compounds when evaluated against typical Gram + and Gram - microorganism.
# [2] = system: Strep. D 9960; assay: standard in vitro agar dilution assay (MIC); type: cell-based; conditions: Strep. D strain 9960
# [3] = Titration (pKa); type: physicochemical; conditions: 66% dimethylformamide in water v/v
# Description: Titration (66% dimethylformamide in water v/v) pKa at 4.0, 7.4, 10.7.
# [4] = system: Staph. aureus S13E; assay: microbe, parasite or virus in culture; type: cell-based; conditions: Staphylococcus aureus, read-out: Agar Dilution MIC
# [5] = system: Staph. epi EPI1; assay: standard in vitro agar dilution assay (MIC); type: cell-based; conditions: Staph. epi strain EPI1
# [6] = system: Pseudomonas X239; assay: standard in vitro agar dilution assay (MIC); type: cell-based; conditions: Pseudomonas strain X239
# [7] = system: Staph. epi 222; assay: standard in vitro agar dilution assay (MIC); type: cell-based; conditions: Staph. epi strain 222
# [8] = system: Klebsiella X68; assay: standard in vitro agar dilution assay (MIC); type: cell-based
# [9] = system: Staph. aureus V41; assay: standard in vitro agar dilution assay (MIC); type: cell-based; conditions: Staphylococcus aureus; Staph. aureus strain V41; read-out: Agar Dilution MIC
# [10] = system: Strep. A C203; assay: standard in vitro agar dilution assay (MIC); type: cell-based; conditions: Strep. A strain C203
# [11] = system: Salmonella X514; assay: standard in vitro agar dilution assay (MIC); type: cell-based
# [12] = system: H. influ. 76; assay: standard in vitro agar dilution assay (MIC); type: cell-based; conditions: H. influ. strain 76; read-out: Agar Dilution MIC
# [13] = system: Staph. aureus X400; assay: standard in vitro agar dilution assay (MIC); type: cell-based; conditions: Staphylococcus aureus; Staph. aureus strain X400
# [14] = system: Enterobacter cloacae EB5; assay: standard in vitro agar dilution assay (MIC); type: cell-based
# [15] = system: Klebsiella KAE; assay: standard in vitro agar dilution assay (MIC); type: cell-based; conditions: Klebsiella strain KAE; read-out: Agar Dilution MIC
# [16] = system: Strep. D X66; assay: standard in vitro agar dilution assay (MIC); type: cell-based; conditions: Strep. D strain X66
# [17] = system: Staph. aureus X1.1; assay: standard in vitro agar dilution assay (MIC); type: cell-based; conditions: Staphylococcus aureus
# [18] = system: Serratia X99; assay: standard in vitro agar dilution assay (MIC); type: cell-based; conditions: Serratia, X99, read-out: Agar Dilution MIC
# [19] = system: Strep. PN PARK; assay: standard in vitro agar dilution assay (MIC); type: cell-based; conditions: Strep. PN strain PARK
# [20] = system: Klebsiella X26; assay: standard in vitro agar dilution assay (MIC); type: cell-based; conditions: Klebsiella strain X26; read-out: Agar Dilution MIC
# [21] = system: Enterobacter aerogenes C32; assay: standard in vitro agar dilution assay (MIC); type: cell-based; conditions: Klebsiella aerogenes
# [22] = system: H. influ. C.L.; assay: standard in vitro agar dilution assay (MIC); type: cell-based; conditions: read-out: Agar Dilution MIC
# [23] = system: E. coli N10; assay: standard in vitro agar dilution assay (MIC); type: cell-based; conditions: Escherichia coli; E. coli strain N10; read-out: Agar Dilution MIC
# [24] = system: E. coli TEM; assay: standard in vitro agar dilution assay (MIC); type: cell-based; conditions: Escherichia coli; E. coli strain TEM; read-out: Agar Dilution MIC
# [25] = system: E. coli EC14; assay: standard in vitro agar dilution assay (MIC); type: cell-based; conditions: Escherichia coli; E. coli strain EC14; read-out: Agar Dilution MIC
# [26] = Klebsiella strain X68, read-out: Agar Dilution MIC
# [27] = Salmonella strain X514, read-out: Agar Dilution MIC
# [28] = Enterobacter cloacae, EB5, read-out: Agar Dilution MIC
# [29] = Staph. aureus strain X1.1, read-out: Agar Dilution MIC
SMILES,MIC [1] [µg/mL],MIC [2] [µg/mL],MIC [4] [µg/mL],MIC [5] [µg/mL],MIC [6] [µg/mL],MIC [7] [µg/mL],"MIC [8, 26] [µg/mL]",MIC [9] [µg/mL],MIC [10] [µg/mL],"MIC [11, 27] [µg/mL]",MIC [13] [µg/mL],"MIC [14, 28] [µg/mL]",MIC [15] [µg/mL],MIC [16] [µg/mL],"MIC [17, 29] [µg/mL]",MIC [18] [µg/mL],MIC [19] [µg/mL],MIC [20] [µg/mL],MIC [22] [µg/mL],MIC [23] [µg/mL],further results
"CO/N=C(\C(=O)N[C@@H]1C(=O)N2C(C(=O)[O-])=C(C[n+]3cccc4nc(N)sc43)CS[C@H]12)c1csc(N)n1 [Example 15, syn-7-[2-(2-aminothiazol-4-yl)-2-methoxyiminoacetamido]-3-(2-aminothiazolo[5,4-b]pyridinium-4-ylmethyl)-3-cephem-4-carboxylate]",1,8,4,2,2,16,4,2,0.015,,,,,,,,,,,,pKa (second) [3]: 7.4; pKa (third) [3]: 10.7; pKa ([3]; read-out: pKa (first)): 4
"CO/N=C(\C(=O)NC1C(=O)N2C(C(=O)[O-])=C(C[n+]3ccc4nc(C)sc4c3)CSC12)c1csc(N)n1 (stereo not drawn) [Example 16, syn-7-[2-(2-aminothiazol-4-yl)-2-methoxyiminoacetamido]-3-(2-methylthiazolo[5,4-c]pyridinium-5-ylmethyl)-3-cephem-4-carboxylate]",8,8,4,2,4,1,,4,0.015,0.03,8,0.125,1,> 128,1,0.125,,,,,MIC [12]: 0.015 µg/mL
"CO/N=C(\C(=O)NC1C(=O)N2C(C(=O)[O-])=C(C[n+]3ccc4[nH]c(-c5cccs5)nc4c3)CSC12)c1csc(N)n1 (stereo not drawn) [Example 8, syn-7-[2-(2-aminothiazol-4-yl)-2-methoxyiminoacetamido]-3-[2-(2-thienyl)-1H-imidazolo[4,5-c]pyridinium-5-ylmethyl)-3-cephem-4-carboxylate]",,4,8,4,,2,,8,< 0.008,0.5,32,0.5,4,> 128,2,0.5,< 0.008,0.015,0.25,1,"MIC ([21]; C32, read-out: Agar Dilution MIC): 0.5 µg/mL; MIC ([8]; Klebsiella, X68, read-out: Agar Dilution MIC): 0.5 µg/mL"
"CO/N=C(\C(=O)NC1C(=O)N2C(C(=O)[O-])=C(C[n+]3ccc4oc(C)nc4c3)CSC12)c1csc(N)n1 (stereo not drawn) [Example 11, syn-7-[2-(2-aminothiazol-4-yl)-2-methoxyiminoacetamido]-3-(2-methyloxazolo[4,5-c]pyridinium-5-ylmethyl)-3-cephem-4-carboxylate]",4,8,8,4,2,1,,8,0.015,0.03,32,0.125,4,> 128,,0.125,0.015,0.015,0.125,,"MIC ([17]; X1.1, read-out: Agar Dilution MIC): 0.5 µg/mL"
"CO/N=C(\C(=O)NC1C(=O)N2C(C(=O)[O-])=C(C[n+]3ccc4c(c3)ncn4C)CSC12)c1csc(N)n1 (stereo not drawn) [Example 4, syn-7-[2-(2-aminothiazol-4-yl)-2-methoxyiminoacetamido]-3-(1-methyl-1H-imidazolo[4,5-c]pyridinium-5-ylmethyl)-3-cephem-4-carboxylate]",1,2,8,2,2,1,0.015,8,0.15,,64,,4,> 128,1,,0.15,0.015,,0.03,"MIC ([11]; Salmonella, X514, read-out: Agar Dilution MIC): 0.05 µg/mL; MIC ([21]; Enterobacter aerogenes strain C32, read-out: Agar Dilution MIC): 0.03 µg/mL; MIC ([14]; Enterobacter cloacae strain EB5, read-out: Agar Dilution MIC): 0.03 µg/mL; MIC [24]: 0.015 µg/mL; MIC [25]: < 0.008 µg/mL"
